Measured values published in US20250197384A1, “AZOLE COMPOUND AND ANTIFUNGAL AGENT” (NIHON NOHYAKU CO., LTD., priority 2022, published 2025).
Values after ≈ are worked out from the molar mass of the structure shown.

Assays:
[1] = system: Aspergillus fumigatus TIMM0063; experiment: In vitro anti-Aspergillus activity test; format: cell-based; details: for A. fumigatus (MIC): 80% or more inhibition, unit inferred
Protocol: Aspergillus fumigatus TIMM0063 was used as the strain. The test fungi were cultured on a Potato dextrose agar slant medium at 35° C. for 4 days, and then sterilized saline containing 0.1% (v/v) Tween 80 was added to release the conidia. This conidial suspension was filtered through sterile gauze, and the number of conidia was counted using a hemocytometer. The same solution was adjusted to a conidial concentration of 1×10^6 conidia/mL, and this was used as an inoculum. Each compound was dissolved in dimethyl sulfoxide to a predetermined concentration, and diluted 50-fold with 0.165 M MOPS buffered RPMI 1640 liquid medium, and each diluted solution was dispensed into a 96-well microplate by each 100 μL. The inoculum was diluted 50-fold with 0.165 M MOPS buffered RPMI 1640 liquid medium containing 20% alamar Blue™, and the diluted solution was inoculated into the 96-well microplate containing the compound by each 100 μL (final inoculum amount 1.0×10^4 conidia/mL). After static culture at 35° C. for 48 hr, the degree of color development of the alamar Blue™ was measured using a microplate reader (O.D. 570-595 nm), and the minimum concentration showing 80% or more inhibition was defined as the minimum inhibitory concentration (MIC).

[2] = system: Candida albicans NBRC1270; experiment: In vitro anti-Candida activity test; format: cell-based; details: for C. albicans (MIC): 80% or more inhibition, unit inferred
Protocol: Candida albicans NBRC1270 was used as the strain. The test fungi were cultured on a Sabouraud dextrose agar slant medium at 35° C. for 24 hr, and then suspended in sterilized saline. The number of cells in this suspension was counted using a hemocytometer, and the same suspension was adjusted to a cell concentration of 1.5×10^5 cells/mL, and this was used as an inoculum. Each compound was dissolved in dimethyl sulfoxide to a predetermined concentration, and diluted 50-fold with 0.165 M MOPS buffered RPMI 1640 liquid medium, and each diluted solution was dispensed into a 96-well microplate by each 100 μL. The inoculum was diluted 50-fold with 0.165 M MOPS buffered RPMI 1640 liquid medium containing 20% alamar Blue™, and the diluted solution was inoculated into the 96-well microplate containing the compound by each 100 μL (final inoculum amount 1.5×10^3 cells/mL). After static culture at 35° C. for 24 hr, the degree of color development of the alamar Blue™ was measured using a microplate reader (O.D. 570-595 nm), and the minimum concentration showing 80% or more inhibition was defined as the minimum inhibitory concentration (MIC).

[3] = Table 22, 35° C. for 48 hr, alamar Blue, minimum concentration showing 80% or more inhibition
[4] = Table 22, 35° C. for 24 hr, alamar Blue, minimum concentration showing 80% or more inhibition

`CC(C)CON=Cc1cnc(C2CSC(=C(C#N)n3cncn3)S2)c(Cl)c1` (racemic) [compound 143] showed an A. fumigatus (MIC) ([1]; Table 24, 35° C. for 48 hr) of 0.005 µg/mL and a C. albicans (MIC) ([2]; Table 24, 35° C. for 24 hr) of 0.0025 µg/mL.

Compound `CCCON=Cc1cnc(C2CSC(=C(C#N)n3cncn3)S2)c(F)c1` (racemic) [compound 144] has an A. fumigatus (MIC) ([1]; Table 24, 35° C. for 48 hr) of 0.005 µg/mL and a C. albicans (MIC) ([2]; Table 24, 35° C. for 24 hr) of 0.01 µg/mL.

`N#C/C(=C1/SCC(c2ncc(NC(=O)OCC3(F)CC3)cc2Cl)S1)n1cncn1` (racemic) [compound 150] gave an A. fumigatus (MIC) ([1]; Table 25, 35° C. for 48 hr) of 0.01 µg/mL and a C. albicans (MIC) ([2]; Table 25, 35° C. for 24 hr) of 0.005 µg/mL.

Work on `N#C/C(=C1/SCC(c2ncc(NC(=O)OCC3CC3(Cl)Cl)cc2Cl)S1)n1cncn1` (racemic) [compound 151] yielded an A. fumigatus (MIC) ([1]; Table 25, 35° C. for 48 hr) of 0.01 µg/mL and a C. albicans (MIC) ([2]; Table 25, 35° C. for 24 hr) of 0.0025 µg/mL.

With `CCOC(=O)Nc1cnc([C@@H]2CS/C(=C(/C#N)n3cncn3)S2)c(F)c1` [Compound No. 8, ethyl (R,E)-(6-{2-[cyano(1H-1,2,4-triazol-1-yl)methylene]-1,3-dithiolan-4-yl}-5-fluoropyridin-3-yl)carbamate] the MIC ([1]; Aspergillus fumigatus, Table 22, 35° C. for 48 hr, alamar Blue, minimum concentration showing 80% or more inhibition, read-out: minimum inhibitory concentration against various fungi (MIC) A. fumigatus) was 0.005 µg/mL (≈ 0.0127 µM) and the MIC ([2]; Candida albicans, Table 22, 35° C. for 24 hr, alamar Blue, minimum concentration showing 80% or more inhibition, read-out: minimum inhibitory concentration against various fungi (MIC) C. albicans) was 0.025 µg/mL (≈ 0.0637 µM).

For `CC1(C)OCC(c2cnc(C3CS/C(=C(/C#N)n4ccnc4)S3)c(Cl)c2)O1` (centres unmarked) [compound 5], the “minimum inhibitory concentration against various fungi (MIC) A. fumigatus” value [1, 3] was 0.01 µg/mL (≈ 0.0238 µM) and the “minimum inhibitory concentration against various fungi (MIC) C. albicans” value [2, 4] was 0.005 µg/mL (≈ 0.0119 µM).

With `COC(=O)Nc1cnc([C@@H]2CS/C(=C(/C#N)n3cncn3)S2)c(Cl)c1` [compound 9] the “minimum inhibitory concentration against various fungi (MIC) A. fumigatus” value [1, 3] was 0.005 µg/mL (≈ 0.0127 µM) and the “minimum inhibitory concentration against various fungi (MIC) C. albicans” value [2, 4] was 0.013 µg/mL (≈ 0.0329 µM).

In the case of `N#C/C(=C1/SCC(c2ncc(NC(=O)OCc3ccccc3)cc2F)S1)n1cncn1` (centres unmarked) [compound 13], the “minimum inhibitory concentration against various fungi (MIC) A. fumigatus” value [1, 3] is reported as 0.005 µg/mL (≈ 0.011 µM) and the “minimum inhibitory concentration against various fungi (MIC) C. albicans” value [2, 4] is reported as 0.0025 µg/mL (≈ 0.0055 µM).

With `N#C/C(=C1/SCC(c2ncc(NC(=O)OCc3ccccc3)cc2Cl)S1)n1cncn1` (centres unmarked) [compound 14] the “minimum inhibitory concentration against various fungi (MIC) A. fumigatus” value [1, 3] was 0.005 µg/mL (≈ 0.0106 µM) and the “minimum inhibitory concentration against various fungi (MIC) C. albicans” value [2, 4] was 0.0013 µg/mL (≈ 0.00276 µM).

In the case of `N#C/C(=C1/SCC(c2ncc(NC(=O)OCc3ccccc3)cc2Cl)S1)n1ccnc1` (centres unmarked) [compound 17], the “minimum inhibitory concentration against various fungi (MIC) A. fumigatus” value [1, 3] is reported as 0.005 µg/mL (≈ 0.0106 µM) and the “minimum inhibitory concentration against various fungi (MIC) C. albicans” value [2, 4] is reported as 0.0013 µg/mL (≈ 0.00277 µM).

For `CO/N=C/c1cnc(C2CS/C(=C(/C#N)n3cncn3)S2)c(F)c1` (centres unmarked) [compound 18], the “minimum inhibitory concentration against various fungi (MIC) A. fumigatus” value [1, 3] was 0.01 µg/mL (≈ 0.0276 µM) and the “minimum inhibitory concentration against various fungi (MIC) C. albicans” value [2, 4] was 0.05 µg/mL (≈ 0.138 µM).

With `CCO/N=C/c1cnc(C2CS/C(=C(/C#N)n3cncn3)S2)c(F)c1` (centres unmarked) [compound 20] the “minimum inhibitory concentration against various fungi (MIC) A. fumigatus” value [1, 3] was 0.01 µg/mL (≈ 0.0266 µM) and the “minimum inhibitory concentration against various fungi (MIC) C. albicans” value [2, 4] was 0.013 µg/mL (≈ 0.0345 µM).

For `N#C/C(=C1/SCC(c2ncc(/C=N/OCc3ccccc3)cc2F)S1)n1cncn1` (centres unmarked) [compound 22], the “minimum inhibitory concentration against various fungi (MIC) A. fumigatus” value [1, 3] was 0.005 µg/mL (≈ 0.0114 µM) and the “minimum inhibitory concentration against various fungi (MIC) C. albicans” value [2, 4] was 0.0006 µg/mL (≈ 0.00137 µM).

With `N#C/C(=C1/SCC(c2ncc(/C=N/OCc3ccccc3)cc2Cl)S1)n1ccnc1` (centres unmarked) [compound 26] the “minimum inhibitory concentration against various fungi (MIC) A. fumigatus” value [1, 3] was 0.005 µg/mL (≈ 0.011 µM) and the “minimum inhibitory concentration against various fungi (MIC) C. albicans” value [2, 4] was 0.0013 µg/mL (≈ 0.00286 µM).

With `N#C/C(=C1/SCC(c2ncc(COC3CCCCO3)cc2Cl)S1)n1ccnc1` (centres unmarked) [compound 28, (E)-2-[4-(3-chloro-5-{[(tetrahydro-2H-pyran-2-yl)oxy]methyl}pyridin-2-yl)-1,3-dithiolan-2-ylidene]-2-(1H-imidazol-1-yl)acetonitrile] the A. fumigatus (MIC) ([1]; Table 23, 35° C. for 48 hr) was 0.01 µg/mL and the C. albicans (MIC) ([2]; Table 23, 35° C. for 24 hr) was 0.01 µg/mL.

`N#C/C(=C1/SCC(c2ncc(NC(=O)OCCCl)cc2Cl)S1)n1ccnc1` (centres unmarked) [compound 66] was tested, and the A. fumigatus (MIC) ([1]; Table 23, 35° C. for 48 hr) was 0.01 µg/mL and the C. albicans (MIC) ([2]; Table 23, 35° C. for 24 hr) was 0.005 µg/mL.

Work on `N#C/C(=C1/SCC(c2ncc(NC(=O)OCCCCl)cc2Cl)S1)n1ccnc1` (centres unmarked) [compound 67] yielded an A. fumigatus (MIC) ([1]; Table 23, 35° C. for 48 hr) of 0.01 µg/mL and a C. albicans (MIC) ([2]; Table 23, 35° C. for 24 hr) of 0.0025 µg/mL.

In the case of `N#C/C(=C1/SCC(c2ncc(NC(=O)OCc3ccc(F)cn3)cc2Cl)S1)n1cncn1` (centres unmarked) [compound 73], the A. fumigatus (MIC) ([1]; Table 23, 35° C. for 48 hr) is reported as 0.01 µg/mL and the C. albicans (MIC) ([2]; Table 23, 35° C. for 24 hr) is reported as 0.01 µg/mL.

For `N#C/C(=C1/SCC(c2ncc(NC(=O)OCc3ccc(F)nc3)cc2Cl)S1)n1cncn1` (centres unmarked) [compound 74], the A. fumigatus (MIC) ([1]; Table 23, 35° C. for 48 hr) was 0.01 µg/mL and the C. albicans (MIC) ([2]; Table 23, 35° C. for 24 hr) was 0.01 µg/mL.
